Assay results from publication PMC8904520, “Characterization of a small-molecule inhibitor targeting NEMO/IKKβ to suppress colorectal cancer growth” (Signal Transduction and Targeted Therapy, 2022).

Columns and labels:
NEMO/IKKβ complex = biological target: T1, NEMO/IKKβ complex (Homo sapiens, UniProt O14920+Q9Y6K9); assay: Co-immunoprecipitation of NEMO/IKKβ; conditions: pre-formed complex, Co-IP
T1 construct: expressed in transfected cells; host or cells: HEK293T
Protocol: The pre-cleared cell lysates were incubated with an anti-HA antibody on a rotating platform at 4 °C for 2 h, and then incubated for another 6 h with protein A/G-sepharose beads. The sepharose beads were washed three times with binding buffer, mixed with gel loading buffer and boiled for 5 min. The samples were centrifuged and the supernatants were used for western blot analysis. A specific antibody against the Flag-tag was applied for the detection of proteins.
The IKKβ and NEMO expression vectors were constructed by subcloning the full-length cDNA to pENTER-4T1 expression vector (Flag- or HA-tagged) developed by ViGene Biosciences, as described previously.[25] The 293T cells (1 × 10^6) were plated into 60 mm dishes for 1 day, and then transfected with the relevant plasmids encoding HA-IKKβ and Flag-NEMO using Lipofectamine 2000 transfection reagent (Invitrogen). After transfection, the cells were cultured for another 24 h. Subsequently, the transfected cells were trypsinized and seeded into 60 mm dishes, followed by culturing with fresh medium containing the indicated doses of SHK for 48 h, and then collected for the Co-IP assay.

[1] = tested on: colorectal cancer cells (LoVo, RKO, SW620, HCT15, HCT116); assay: CCK-8 cell viability assay, colorectal cancer cells; type: cell-based, human; conditions: LoVo, RKO, SW620, HCT15, HCT116; 48 h
Protocol: Cell viability was determined using the CCK-8 assay. Briefly, 5×10³ cells were seeded into 96-well culture plates, allowed to adhere for overnight, and then changed to fresh medium containing various concentrations of SHK (0, 0.5, 1, 2 and 5 µM) dissolved in DMSO (final concentration, 0.1%). After incubation for 48 h, the CCK-8 reagent was added, and the absorbance was measured at 450 nm using an EnSpire® Multimode Plate Reader (Perkin Elmer, USA). The cell viability in the vehicle control groups was defined as 100%. Each assay was carried out in triplicate.

T1 sequence (Q9Y6K9 1-196): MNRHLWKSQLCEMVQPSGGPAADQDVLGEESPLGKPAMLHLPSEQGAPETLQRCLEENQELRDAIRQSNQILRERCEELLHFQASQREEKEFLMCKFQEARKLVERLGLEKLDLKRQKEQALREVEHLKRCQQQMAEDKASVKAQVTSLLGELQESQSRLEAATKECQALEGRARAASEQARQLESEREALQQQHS
T1 sequence (O14920 701-745): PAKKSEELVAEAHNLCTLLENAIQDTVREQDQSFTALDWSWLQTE

Compound: CC(=O)O[C@H](CC=C(C)C)C1=CC(=O)c2c(O)ccc(O)c2C1=O [ASHK, acetyl shikonin]
- ability to destabilize the NEMO/IKKβ complex (NEMO/IKKβ complex): lost the ability to destabilize the NEMO/IKKβ complex
- growth inhibition of cancer cell lines [1]: only slight growth inhibition

Compound: CC(C)=CCCC1=CC(=O)c2c(O)ccc(O)c2C1=O [DSHK, deoxyshikonin]
- ability to destabilize the NEMO/IKKβ complex (NEMO/IKKβ complex): lost the ability to destabilize the NEMO/IKKβ complex
- growth inhibition of cancer cell lines [1]: only slight growth inhibition

Compound: COC(CC=C(C)C)C1=CC(=O)c2c(O)ccc(O)c2C1=O (stereo not drawn) [MSHK, methylshikonin]
- ability to destabilize the NEMO/IKKβ complex (NEMO/IKKβ complex): lost the ability to destabilize the NEMO/IKKβ complex
- growth inhibition of cancer cell lines [1]: only slight growth inhibition
